Columns and labels:
[1] = Cytotoxicity against human RXF393 cells assessed as cell growth at 10^-8 M after 24 hrs by SRB assay; type: functional; conditions: RXF 393, 24 h, read-out: Activity
[2] = system: SR; assay: Cytotoxicity against human SR cells assessed as cell growth at 10^-7 M after 24 hrs by SRB assay; type: functional; conditions: read-out: Activity
[3] = system: SK-MEL-2; assay: Cytotoxicity against human SK-MEL-2 cells assessed as cell growth at 10^-7 M after 24 hrs by SRB assay; type: functional; conditions: SK-MEL-2, 24 h, read-out: Activity
[4] = system: NCI-H460; assay: Cytotoxicity against human NCI-H460 cells assessed as cell growth at 10 uM after 24 hrs by SRB assay; type: functional; conditions: NCI-H460, 24 h, read-out: Activity
[5] = Cytotoxicity against human HCT116 cells assessed as cell growth at 10 uM after 24 hrs by SRB assay; type: functional; conditions: HCT-116, 24 h, read-out: Activity
[6] = Cytotoxicity against human HCT15 cells assessed as cell growth at 10 uM after 24 hrs by SRB assay; type: functional; conditions: HCT-15, 24 h, read-out: Activity
[7] = Cytotoxicity against human SW620 cells assessed as cell growth at 10 uM after 24 hrs by SRB assay; type: functional; conditions: SW-620, 24 h, read-out: Activity
[8] = Cytotoxicity against human SNB75 cells assessed as cell growth at 10 uM after 24 hrs by SRB assay; type: functional; conditions: SNB-75, 24 h, read-out: Activity
[9] = system: Malme-3M; assay: Cytotoxicity against human MALME-3M cells assessed as cell growth at 10 uM after 24 hrs by SRB assay; type: functional; conditions: read-out: Activity
[10] = system: MDA-MB-435; assay: Cytotoxicity against human MDA-MB-435 cells assessed as cell growth at 10 uM after 24 hrs by SRB assay; type: functional; conditions: MDA-MB-435, 24 h, read-out: Activity
[11] = system: SK-MEL-2; assay: Cytotoxicity against human SK-MEL-2 cells assessed as cell growth at 10 uM after 24 hrs by SRB assay; type: functional; conditions: SK-MEL-2, 24 h, read-out: Activity
[12] = Cytotoxicity against human OVCAR5 cells assessed as cell growth at 10 uM after 24 hrs by SRB assay; type: functional; conditions: OVCAR-5, 24 h, read-out: Activity
[13] = system: ACHN; assay: Cytotoxicity against human ACHN cells assessed as cell growth at 10 uM after 24 hrs by SRB assay; type: functional; conditions: read-out: Activity
[14] = Cytotoxicity against human RXF393 cells assessed as cell growth at 10 uM after 24 hrs by SRB assay; type: functional; conditions: RXF 393, 24 h, read-out: Activity
[15] = Cytotoxicity against human TK10 cells assessed as cell growth at 10 uM after 24 hrs by SRB assay; type: functional; conditions: TK-10, 24 h, read-out: Activity
[16] = Cytotoxicity against human UO31 cells assessed as cell growth at 10 uM after 24 hrs by SRB assay; type: functional; conditions: UO-31, 24 h, read-out: Activity
[17] = Cytotoxicity against human PC3 cells assessed as cell growth at 10 uM after 24 hrs by SRB assay; type: functional; conditions: PC-3, 24 h, read-out: Activity
[18] = Cytotoxicity against human Hs 578T cells assessed as cell growth at 10 uM after 24 hrs by SRB assay; type: functional; conditions: read-out: Activity
[19] = Cytotoxicity against human LOXIMVI cells after 24 hrs by SRB assay; type: functional, cell-based; conditions: LOX IMVI
[20] = system: K562; assay: Cytotoxicity against human K562 cells assessed as cell growth at 10 uM after 24 hrs by SRB assay; type: functional; conditions: K562, 24 h, read-out: Activity
[21] = Cytotoxicity against human MOLT4 cells assessed as cell growth at 10 uM after 24 hrs by SRB assay; type: functional; conditions: MOLT-4, 24 h, read-out: Activity
[22] = system: A549; assay: Cytotoxicity against human A549 cells assessed as cell growth at 10 uM after 24 hrs by SRB assay; type: functional; conditions: A549, 24 h, read-out: Activity
[23] = system: EKVX; assay: Cytotoxicity against human EKVX cells assessed as cell growth at 10 uM after 24 hrs by SRB assay; type: functional; conditions: read-out: Activity
[24] = system: NCI-H226; assay: Cytotoxicity against human NCI-H226 cells assessed as cell growth at 10 uM after 24 hrs by SRB assay; type: functional; conditions: NCI-H226, 24 h, read-out: Activity
[25] = system: NCI-H23; assay: Cytotoxicity against human NCI-H23 cells assessed as cell growth at 10 uM after 24 hrs by SRB assay; type: functional; conditions: NCI-H23, 24 h, read-out: Activity
[26] = Cytotoxicity against human SF268 cells assessed as cell growth at 10^-6 M after 24 hrs by SRB assay; type: functional; conditions: SF-268, 24 h, read-out: Activity
[27] = Cytotoxicity against human Caki1 cells assessed as cell growth at 10^-6 M after 24 hrs by SRB assay; type: functional; conditions: CAKI-1, 24 h, read-out: Activity
[28] = system: SK-MEL-2; assay: Cytotoxicity against human SK-MEL-2 cells assessed as cell growth at 10^-8 M after 24 hrs by SRB assay; type: functional; conditions: SK-MEL-2, 24 h, read-out: Activity
[29] = system: K562; assay: Cytotoxicity against human K562 cells assessed as cell growth at 10^-4 M after 24 hrs by SRB assay; type: functional; conditions: K562, 24 h, read-out: Activity

## O=C(Nc1cc(-c2cccnc2)nc(NCCCN2CCOCC2)n1)c1cc(Br)cc(C(F)(F)F)c1
[1]
  growth at 0.01 µM: 99%
[2]
  growth at 0.1 µM: 106%
[3]
  growth at 0.1 µM: 95%
[4]
  growth at 10 µM: 56%
[5]
  growth at 10 µM: 35.7%
[6]
  growth at 10 µM: 6.87%
[7]
  growth at 10 µM: 75.4%
[8]
  growth at 10 µM: 72.1%
[9]
  growth at 10 µM: -7.83%
[10]
  growth at 10 µM: 9.55%
[11]
  growth at 10 µM: 81.3%
[12]
  growth at 10 µM: 81.4%
[13]
  growth at 10 µM: 75.6%
[14]
  growth at 10 µM: 52.8%
[15]
  growth at 10 µM: 65.4%
[16]
  growth at 10 µM: 42%
[17]
  growth at 10 µM: 57.7%
[18]
  growth at 10 µM: 54%
[19]
  IC50: 1.62 µM
[19]; read-out: GI50
  GI50: 1.62 µM
[19]; read-out: LC50 (the source's name)
  CC50: 5.79 µM
[19]; read-out: TGI
  TGI: 3.06 µM
[19]; read-out: pGI50 (converted)
  GI50: 1.62 µM
[19]; read-out: pLC50 (the source's name) (converted)
  CC50: 5.75 µM
[19]; read-out: pTGI (converted)
  TGI: 3.09 µM
[20]
  growth at 10 µM: 8.84%
[21]
  growth at 10 µM: 45.1%
[22]
  growth at 10 µM: 67.9%
[23]
  growth at 10 µM: 77.4%
[24]
  growth at 10 µM: 73.8%
[25]
  growth at 10 µM: 80.9%
[26]
  growth at 1 µM: 85%
[27]
  growth at 1 µM: 82%
[28]
  growth at 0.01 µM: 109%
[29]
  growth at 100 µM: -7%
